Consider one compound from paper PMC5035018, “Arachidonic Acid Metabolite 19(S)-HETE Induces Vasorelaxation and Platelet Inhibition by Activating Prostacyclin (IP) Receptor” (PLoS ONE, 2016).

In general, Ki refers to the dissociation constant of the complex between target and ligand, obtained from inhibition or displacement. High values mean lower affinity, low ones higher affinity.

The target in the experiment is T1, prostacyclin (IP) receptor (Homo sapiens, UniProt P43119).
T1 construct: gene PTGIR; human IP receptor cDNA expressed in COS-1 cells
The experiment is described as follows: [3H]-iloprost competition radioligand binding on transfected COS-1 cells (also cAMP EC50 […]). Type of experiment: cell-based.

T1 sequence (P43119 1-383): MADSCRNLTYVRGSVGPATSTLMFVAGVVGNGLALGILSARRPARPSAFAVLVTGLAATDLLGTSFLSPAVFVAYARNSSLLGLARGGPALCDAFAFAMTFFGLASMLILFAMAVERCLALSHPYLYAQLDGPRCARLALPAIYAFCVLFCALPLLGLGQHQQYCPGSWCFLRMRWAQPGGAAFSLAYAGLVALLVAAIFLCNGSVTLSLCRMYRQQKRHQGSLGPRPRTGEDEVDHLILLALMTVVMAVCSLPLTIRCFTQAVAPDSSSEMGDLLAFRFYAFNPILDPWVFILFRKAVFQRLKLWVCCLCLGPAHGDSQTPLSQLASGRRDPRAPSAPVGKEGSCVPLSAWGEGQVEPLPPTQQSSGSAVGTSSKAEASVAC

`C[C@H](O)CCC/C=C\C/C=C\C/C=C\C/C=C\CCCC(=O)O` [19(S)-HETE, 19(S)-hydroxy-5Z,8Z,11Z,14Z-eicosatetraenoic acid] came in with a Ki of 660 nM.
